In patent US20050008695A1, “Compositions and methods for delivering a biologically active agent” (Control Delivery Systems, Inc., priority 2003, published 2005):

Tests used:
[1] = Hydrolysis rate (half-life) in buffer, pH 7.4; type: physicochemical
Text: (§1) Hydrolysis Rate (half-life t½)
(§2) Hydrolysis Rate (half life t½)

[2] = Hydrolysis rate (half-life) in human plasma; type: in vitro ADME
Text: as §1, §2

[3] = Aqueous solubility compared with constituent drugs; type: physicochemical; conditions: qualitative comparison with the unlinked drugs
[4] = Lipophilicity compared with constituent drug; type: physicochemical; conditions: qualitative comparison
[5] = not told
[6] = read-out: Hydrolysis Rate (half-life t½) In Human Plasma
[7] = read-out: Hydrolysis Rate (half-life t½) In Buffer, pH7.4 (converted)
[8] = read-out: Hydrolysis Rate (half life t½) In Human Plasma (converted)

| SMILES | half-life [2, 6] [h] | Lipophilicity relative to constituent drug [4] | Aqueous / water solubility relative to constituent drug(s) [3] | half-life [1, 7] [h] | half-life [2, 8] [h] | other results |
| --- | --- | --- | --- | --- | --- | --- |
| CC1(C)O[C@@H]2CC3C4C[C@H](F)C5=CC(=O)C=CC5(C)[C@@]4(F)CCC3(C)[C@]2(C(=O)COC(=O)Cc2ccccc2Nc2c(Cl)cccc2Cl)O1 (stereo partly shown) [Diclofenac-Fluocinolone Acetonide] | – | – | lower solubility under aqueous conditions than either of the constituent drugs | 15 | 168 | – |
| O=C(O)Cc1ccccc1Nc1c(Cl)cccc1Cl.O=C(O)c1cn(C2CC2)c2cc(N3CCNCC3)c(F)cc2c1=O [diclofenac-ciprofloxacin codrug] | – | – | – | – | – | Permeation [5]: enhanced permeation |

More lines, main results first:

| half-life [2, 6] [h] | Lipophilicity relative to constituent drug [4] | SMILES | Aqueous / water solubility relative to constituent drug(s) [3] | half-life [1, 7] [h] | half-life [2, 8] [h] | other results |
| --- | --- | --- | --- | --- | --- | --- |
| 0.167 | more lipophilic than the ionized form | O=C(Cc1ccccc1Nc1c(Cl)cccc1Cl)OCCOCCOCCOCCO [Diclofenac-PEG4] | higher water solubility than unionized diclofenac | – | – | half-life ([1]; read-out: Hydrolysis Rate (half life t½) In Buffer, pH7.4 (converted)): 168 h |
| 0.1 | – | O=C(Cc1ccccc1Nc1c(Cl)cccc1Cl)OCc1oc(=O)oc1COC(=O)Cc1ccccc1Nc1c(Cl)cccc1Cl [Diclofenac Dimer] | – | 25 | – | – |
| – | more lipophilic than ofloxacin alone | CC1COc2c(N3CCN(C)CC3)c(F)cc3c(=O)c(C(=O)OCCOCCOC(=O)Cc4ccccc4Nc4c(Cl)cccc4Cl)cn1c23 (stereo not shown) [Diclofenac-Ofloxacin] | – | – | 6.5 | Hydrolysis Rate (half life t½) In Buffer, pH7.4 ([1]; given in words, no number): days |
